# Test results reported in US9216999B2, “Substituted pyrrolo[2,3-h][1,6]naphthyridines and compositions thereof as JAK inhibitors” (priority 2011, dated 2015).
# Like-named read-outs stand apart in the source and are kept apart here.
# Tests used:
# Format in all cases: biochemical
# JAK3 = JAK3 (Homo sapiens (Human), UniProt P52333); experiment: Enzyme assay (Assay Example^a 1), JAK3
# JAK1 = JAK1 (Homo sapiens (Human), UniProt P23458); experiment: Enzyme assay (Assay Example^a 1), JAK1; conditions: ATP 100 μM
# Tyk2 = Tyk2 (Homo sapiens (Human), UniProt P29597); experiment: Enzyme assay (Assay Example^a 1), Tyk2; conditions: ATP 100 μM
# JAK2 = JAK2 (Homo sapiens (Human), UniProt O60674); experiment: Enzyme assay (Assay Example^a 1), JAK2; conditions: ATP 100 μM
# Sequence of Tyk2 (P29597 whole entry): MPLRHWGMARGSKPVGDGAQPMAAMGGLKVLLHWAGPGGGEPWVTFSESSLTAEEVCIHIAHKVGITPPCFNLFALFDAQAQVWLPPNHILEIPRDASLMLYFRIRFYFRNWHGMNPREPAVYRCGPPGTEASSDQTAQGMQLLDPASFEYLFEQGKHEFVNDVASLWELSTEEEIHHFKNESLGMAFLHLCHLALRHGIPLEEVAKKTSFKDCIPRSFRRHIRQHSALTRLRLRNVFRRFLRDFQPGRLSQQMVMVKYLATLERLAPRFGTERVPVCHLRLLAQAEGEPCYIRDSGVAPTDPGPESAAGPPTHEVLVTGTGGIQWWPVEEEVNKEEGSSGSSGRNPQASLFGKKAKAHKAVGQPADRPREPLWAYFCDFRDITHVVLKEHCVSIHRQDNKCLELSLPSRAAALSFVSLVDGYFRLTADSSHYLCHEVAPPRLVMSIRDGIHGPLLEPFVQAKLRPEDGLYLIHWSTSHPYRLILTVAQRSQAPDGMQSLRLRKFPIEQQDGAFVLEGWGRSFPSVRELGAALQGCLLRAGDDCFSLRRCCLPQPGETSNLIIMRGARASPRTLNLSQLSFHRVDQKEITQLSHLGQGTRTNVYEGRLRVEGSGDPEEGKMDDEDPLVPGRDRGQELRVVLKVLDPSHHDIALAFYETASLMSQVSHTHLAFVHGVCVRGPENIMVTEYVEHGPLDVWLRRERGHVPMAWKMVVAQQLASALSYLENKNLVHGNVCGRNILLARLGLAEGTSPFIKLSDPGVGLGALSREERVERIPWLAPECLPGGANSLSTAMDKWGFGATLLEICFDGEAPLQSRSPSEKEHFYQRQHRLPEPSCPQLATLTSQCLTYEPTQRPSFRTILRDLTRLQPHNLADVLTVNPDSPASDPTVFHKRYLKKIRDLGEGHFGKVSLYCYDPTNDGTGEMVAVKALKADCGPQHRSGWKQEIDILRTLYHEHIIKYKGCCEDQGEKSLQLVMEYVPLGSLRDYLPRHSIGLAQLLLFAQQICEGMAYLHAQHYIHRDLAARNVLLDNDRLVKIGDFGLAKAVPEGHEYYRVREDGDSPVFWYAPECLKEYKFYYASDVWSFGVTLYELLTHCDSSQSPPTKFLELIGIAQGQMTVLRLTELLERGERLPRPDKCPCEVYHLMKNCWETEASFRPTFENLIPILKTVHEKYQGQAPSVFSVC
# Sequence of JAK3 (P52333 whole entry): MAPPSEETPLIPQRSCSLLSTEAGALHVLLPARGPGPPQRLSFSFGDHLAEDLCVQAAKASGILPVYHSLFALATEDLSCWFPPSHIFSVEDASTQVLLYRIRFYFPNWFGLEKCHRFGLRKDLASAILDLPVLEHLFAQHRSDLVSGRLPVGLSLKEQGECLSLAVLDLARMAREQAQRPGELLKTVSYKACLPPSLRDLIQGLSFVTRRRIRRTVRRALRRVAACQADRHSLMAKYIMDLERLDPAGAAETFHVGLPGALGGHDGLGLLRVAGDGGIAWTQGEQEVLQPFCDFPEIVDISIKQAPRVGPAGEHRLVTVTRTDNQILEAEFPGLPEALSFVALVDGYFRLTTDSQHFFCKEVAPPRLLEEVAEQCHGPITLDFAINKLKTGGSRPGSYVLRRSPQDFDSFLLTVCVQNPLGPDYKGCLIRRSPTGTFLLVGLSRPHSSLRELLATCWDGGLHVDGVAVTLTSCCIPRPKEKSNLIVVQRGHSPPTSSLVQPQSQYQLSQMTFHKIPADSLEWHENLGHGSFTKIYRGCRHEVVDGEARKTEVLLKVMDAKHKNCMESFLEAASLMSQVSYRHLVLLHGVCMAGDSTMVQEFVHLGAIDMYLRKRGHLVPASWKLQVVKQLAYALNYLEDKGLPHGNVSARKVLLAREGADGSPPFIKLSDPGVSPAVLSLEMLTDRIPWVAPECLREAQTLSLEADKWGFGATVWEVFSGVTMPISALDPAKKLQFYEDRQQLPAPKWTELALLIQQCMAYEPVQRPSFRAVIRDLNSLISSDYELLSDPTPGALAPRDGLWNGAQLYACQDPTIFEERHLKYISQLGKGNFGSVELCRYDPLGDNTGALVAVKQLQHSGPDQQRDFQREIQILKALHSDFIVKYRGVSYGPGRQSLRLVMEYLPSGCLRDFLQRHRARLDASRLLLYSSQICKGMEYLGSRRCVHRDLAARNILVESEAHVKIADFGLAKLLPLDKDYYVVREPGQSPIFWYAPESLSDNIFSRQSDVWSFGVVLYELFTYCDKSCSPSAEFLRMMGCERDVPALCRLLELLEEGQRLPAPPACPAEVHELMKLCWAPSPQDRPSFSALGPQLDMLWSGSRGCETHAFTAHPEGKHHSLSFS
IC50 (JAK3; ATP 100 μM) [µM],IC50 (JAK1) [µM],IC50 (Tyk2) [µM],IC50 (JAK2) [µM],Structure (SMILES),"IC50 (JAK3; ATP 100 μM, Table^a 154) [µM]",IC50 (JAK1; Table^a 154) [µM],IC50 (Tyk2; Table^a 154) [µM],IC50 (JAK2; Table^a 154) [µM],IC50 (JAK3) [µM]
0.57,0.0046,0.24,0.021,"O=C1COc2cc(NC[C@H]3CC[C@H](c4nnn5cnc6[nH]ccc6c45)CC3)ccc2N1 [compound 273, 7-({[trans-4-(7H-pyrrolo[3,2-e][1,2,3]triazolo[1,5-c]pyrimidin-1-yl)cyclohexyl]methyl}amino)-2H-benzo[b][1,4]oxazin-3(4H)-one]",–,–,–,–,–
0.84,0.0069,0.33,0.064,"CC1(NC[C@H]2CC[C@H](c3nnn4cnc5[nH]ccc5c34)CC2)CC1 [compound 295, N-{[trans-4-(7H-pyrrolo[3,2-e][1,2,3]triazolo[1,5-c]pyrimidin-1-yl)cyclohexyl]methyl}-1-methylcyclopropanamine]",–,–,–,–,–
0.48,0.0069,0.59,0.06,"FC1CN(C[C@H]2CC[C@H](c3nnn4cnc5[nH]ccc5c34)CC2)C1 [compound 338, 1-{trans-4-[(3-fluoroazetidin-1-yl)methyl]cyclohexyl}-7H-pyrrolo[3,2-e][1,2,3]triazolo[1,5-c]pyrimidine]",–,–,–,–,–
0.18,0.0019,0.21,0.031,"OC(CN[C@H]1CC[C@H](c2nnn3cnc4[nH]ccc4c23)CC1)(c1cccnc1)C(F)(F)F (stereo partly drawn) [385b, 3-{[trans-4-(7H-pyrrolo[3,2-e][1,2,3]triazolo[1,5-c]pyrimidin-1-yl)cyclohexyl]amino}-1,1,1-trifluoro-2-(pyridin-3-yl)propan-2-ol]",–,–,–,–,–
0.52,0.0024,0.36,0.089,"COc1ccc(C(O)(CN[C@H]2CC[C@H](c3nnn4cnc5[nH]ccc5c34)CC2)C(F)(F)F)cc1OC (stereo partly drawn) [390b, 3-{[trans-4-(7H-pyrrolo[3,2-e][1,2,3]triazolo[1,5-c]pyrimidin-1-yl)cyclohexyl]amino}-2-(3,4-dimethoxyphenyl)-1,1,1-trifluoropropan-2-ol]",–,–,–,–,–
0.67,0.0053,0.14,0.1,"CC1CC1NC[C@H]1CC[C@H](c2nnn3cnc4[nH]ccc4c23)CC1 (stereo partly drawn) [compound 291, N-{[trans-4-(7H-pyrrolo[3,2-e][1,2,3]triazolo[1,5-c]pyrimidin-1-yl)cyclohexyl]methyl}-2-methylcyclopropanamine]",–,–,–,–,–
0.29,0.0048,0.24,0.013,"N#CC(C#N)=C[C@H]1CC[C@H](c2nnn3cnc4[nH]ccc4c23)CC1 [compound 431, 2-{[trans-4-(7H-Pyrrolo[3,2-e][1,2,3]triazolo[1,5-c]pyrimidin-1-yl)cyclohexyl]methylene}malononitrile]",–,–,–,–,–
0.31,0.0034,0.13,0.0073,"N#CCC(=O)N(CC(F)(F)F)C[C@H]1CC[C@H](c2nnn3cnc4[nH]ccc4c23)CC1 [compound 407, N-{[trans-4-(7H-Pyrrolo[3,2-e][1,2,3]triazolo[1,5-c]pyrimidin-1-yl)cyclohexyl]methyl}-2-cyano-N-(2,2,2-trifluoroethyl)acetamide]",–,–,–,–,–
0.49,0.012,0.36,0.029,"CN(CCC#N)C[C@H]1CC[C@H](c2nnn3cnc4[nH]ccc4c23)CC1 [compound 302, 3-({[trans-4-(7H-pyrrolo[3,2-e][1,2,3]triazolo[1,5-c]pyrimidin-1-yl)cyclohexyl]methyl}(methyl)amino)propanenitrile]",–,–,–,–,–
0.61,0.014,0.33,0.08,"c1cc2c(ncn3nnc([C@H]4CC[C@H](NC5CC5)CC4)c23)[nH]1 [392b, trans-N-cyclopropyl-4-(7H-pyrrolo[3,2-e][1,2,3]triazolo[1,5-c]pyrimidin-1-yl)cyclohexanamine]",–,–,–,–,–
0.32,0.022,0.58,0.04,"Cc1ccc(CN(C[C@H]2CC[C@H](c3nnn4cnc5[nH]ccc5c34)CC2)C(=O)CC#N)o1 [compound 410, N-{[trans-4-(7H-pyrrolo[3,2-e][1,2,3]triazolo[1,5-c]pyrimidin-1-yl)cyclohexyl]methyl}-2-cyano-N-[(5-methylfuran-2-yl)methyl]acetamide]",–,–,–,–,–
0.32,0.0035,0.77,0.033,"N#Cc1ccc(CN2CCC(c3nnn4cnc5[nH]ccc5c34)CC2)cc1F [compound 222, 4-{[4-(7H-pyrrolo[3,2-e][1,2,3]triazolo[1,5-c]pyrimidin-1-yl)piperidin-1-yl]methyl}-2-fluorobenzonitrile]",–,–,–,–,–
0.28,0.0053,0.14,0.019,"N#CCN1CCC(c2nnn3cnc4[nH]ccc4c23)CC1 [compound 246, 2-[4-(7H-pyrrolo[3,2-e][1,2,3]triazolo[1,5-c]pyrimidin-1-yl)piperidin-1-yl]acetonitrile]",–,–,–,–,–
0.61,0.0091,0.068,0.12,"c1cc2c(ncn3nnc([C@H]4CC[C@H](CNCC5CC5)CC4)c23)[nH]1 [compound 285, 1-[trans-4-(7H-pyrrolo[3,2-e][1,2,3]triazolo[1,5-c]pyrimidin-1-yl)cyclohexyl]-N-(cyclopropylmethyl)methanamine]",–,–,–,–,–
0.03,0.00016,0.016,0.0012,"CS(=O)(=O)NC[C@H]1CC[C@H](c2nnn3cnc4[nH]ccc4c23)CC1 [compound 427, N-{[trans-4-(7H-Pyrrolo[3,2-e][1,2,3]triazolo[1,5-c]pyrimidin-1-yl)cyclohexyl]methyl}methanesulfonamide]",–,–,–,–,–

# Second part, the compound before the results:
Structure (SMILES),IC50 (JAK3; ATP 100 μM) [µM],IC50 (JAK1) [µM],IC50 (Tyk2) [µM],IC50 (JAK2) [µM],"IC50 (JAK3; ATP 100 μM, Table^a 154) [µM]",IC50 (JAK1; Table^a 154) [µM],IC50 (Tyk2; Table^a 154) [µM],IC50 (JAK2; Table^a 154) [µM],IC50 (JAK3) [µM]
"O=S(=O)(c1ccc(NC[C@H]2CC[C@H](c3nnn4cnc5[nH]ccc5c34)CC2)cc1)C(F)(F)F [compound 173, N-{[trans-4-(7H-pyrrolo[3,2-e][1,2,3]triazolo[1,5-c]pyrimidin-1-yl)cyclohexyl]methyl}-4-[(trifluoromethyl)sulfonyl]aniline]",–,–,–,–,> 1,0.034,0.46,0.26,–
"CC(C#N)[C@H]1CC[C@@H](c2nnn3cnc4[nH]ccc4c23)CC1 (stereo partly drawn) [439a, 2-[cis-4-(7H-Pyrrolo[3,2-e][1,2,3]triazolo[1,5-c]pyrimidin-1-yl)cyclohexyl]propanenitrile]",> 1,0.13,> 1,0.34,–,–,–,–,–
"N#CCNC(=O)[C@H]1CC[C@H](c2nnn3cnc4[nH]ccc4c23)CC1 [compound 355, trans-N-(cyanomethyl)-4-(7H-pyrrolo[3,2-e][1,2,3]triazolo[1,5-c]pyrimidin-1-yl)cyclohexanecarboxamide]",> 1,0.0042,0.15,0.033,–,–,–,–,–
"FC(F)(F)c1nc2cc(NC[C@H]3CC[C@H](c4nnn5cnc6[nH]ccc6c45)CC3)ccc2[nH]1 [compound 175, N-{[trans-4-(7H-pyrrolo[3,2-e][1,2,3]triazolo[1,5-c]pyrimidin-1-yl)cyclohexyl]methyl}-2-(trifluoromethyl)-1H-benzo[d]imidazol-5-amine]",–,–,–,–,0.34,0.0056,0.045,0.0074,–
"FC(F)(Br)CNC[C@H]1CC[C@H](c2nnn3cnc4[nH]ccc4c23)CC1 [compound 269, N-{[trans-4-(7H-pyrrolo[3,2-e][1,2,3]triazolo[1,5-c]pyrimidin-1-yl)cyclohexyl]methyl}-2-bromo-2,2-difluoroethanamine]",–,0.0013,0.1,0.012,–,–,–,–,0.057
FCCNC[C@H]1CC[C@H](c2nnn3cnc4[nH]ccc4c23)CC1 [compound 107],–,–,–,–,–,0.0028,0.036,0.055,0.28
"FC1(F)Oc2cccc(CN3CCC(c4nnn5cnc6[nH]ccc6c45)CC3)c2O1 [compound 229, 1-{1-[(2,2-difluorobenzo[d][1,3]dioxol-4-yl)methyl]piperidin-4-yl}-7H-pyrrolo[3,2-e][1,2,3]triazolo[1,5-c]pyrimidine]",> 1,0.039,> 1,0.087,–,–,–,–,–
"CC(C)(C)OC(=O)N1CC[C@H](NC[C@H]2CC[C@H](c3nnn4cnc5[nH]ccc5c34)CC2)C1 [compound 337, (S)-tert-butyl 3-({[trans-4-(7H-pyrrolo[3,2-e][1,2,3]triazolo[1,5-c]pyrimidin-1-yl)cyclohexyl]methyl}amino)pyrrolidine-1-carboxylate]",> 1,0.029,0.51,0.34,–,–,–,–,–
"CN(C)[C@H]1CC[C@H](c2nnn3cnc4[nH]ccc4c23)CC1 [397b, trans-N,N-dimethyl-4-(7H-pyrrolo[3,2-e][1,2,3]triazolo[1,5-c]pyrimidin-1-yl)cyclohexanamine]",> 1,0.023,0.8,0.21,–,–,–,–,–
"c1cc2c(ncn3nnc([C@H]4CC[C@H](CNC5CC5)CC4)c23)[nH]1 [compound 280, N-{[trans-4-(7H-pyrrolo[3,2-e][1,2,3]triazolo[1,5-c]pyrimidin-1-yl)cyclohexyl]methyl}cyclopropanamine]",0.68,0.0019,0.1,0.062,–,–,–,–,–
N#Cc1ccc(CN[C@H]2CC[C@@H](c3nnn4cnc5[nH]ccc5c34)CC2)cc1 [137a],–,–,–,–,> 1,0.032,0.31,0.49,–
"c1cc2c(ncn3nnc(C4CCN(Cc5cnc(N6CCOCC6)s5)CC4)c23)[nH]1 [compound 234, 4-(5-{[4-(7H-pyrrolo[3,2-e][1,2,3]triazolo[1,5-c]pyrimidin-1-yl)piperidin-1-yl]methyl}thiazol-2-yl)morpholine]",> 1,0.36,> 1,0.88,–,–,–,–,–
